Test results taken from patent publication US10808008B2, “Aromatic-cationic peptides and uses of same” (Cornell University, priority 2012, dated 2020).
Entries after “also recorded” stand apart in the source; their conditions may differ.

Assays:
[1] = molecular target: T1, cytochrome c and cardiolipin (CL) (Equus caballus, UniProt P00004); assay: Fluorescence quenching by cytochrome c in the presence of cardiolipin; format: binding, horse
T1 construct: from tissue; host or cells: horse heart
Experimental: Fluorescence emission of SS-19 (10 μM) was monitored in real time (Ex/Em=320 nm/420 nm) using Hitachi F-4500 fluorescence spectrophotometer. […] CL may potentiate the interaction between SS-19 and cytochrome c by serving as an anionic platform for the two cationic molecules.
The quenching by cytochrome c was not displaced by sequential additions of bovine serum albumin (500 μg/ml) (FIG. 13C, A+arrows).
SS-36 also contains the polarity-sensitive fluorescent amino acid aladan. […] Accordingly, aromatic-cationic peptides of the present disclosure are useful for the prevention or treatment of diseases or disorders characterized by dysregulation of cardiolipin and/or cytochrome c, and/or diseases or disorders characterized by dysregulation of the cardiolipin/cytochrome c interaction.
(§1) Interaction of SS peptides with horse heart cytochrome c in the absence or presence of free cardiolipin or cardiolipin/POPC (1:1) liposomes (prepared as described in Example 22) was examined by fluorescence quenching of [atn]SS-02 (λex/λem=320/420 nm) and [ald]SS-02 (λex/λem=360/510 nm) upon addition of cytochrome c (using a Hitachi F-4500 fluorescence spectrophotometer). The solvents used to dissolve cardiolipin and POPC had negligible effect on cytochrome c-dependent quenching of these peptides. All experiments were done in low ionic solution (deionized water) or 20 mM Hepes pH 7.4.

cytochrome c [2] = molecular target: T2, cytochrome c (Equus caballus, UniProt P00004); assay: Fluorescence quenching of labelled peptides by cytochrome c; format: binding, horse; set-up: from tissue; host or cells: horse heart; settings: for change in λmax on quenching by cytochrome c / quenching of fluorescence by cytochrome c: Example 22; for quenching of fluorescence by cytochrome c: additions of cytochrome c (2 μM)
Experimental: Maximal fluorescence emission of SS-19 was monitored at 420 nm following excitation at 320 nm using Hitachi F-4500 fluorescence spectrophotometer.
The quenching by cytochrome c was not displaced by sequential additions of bovine serum albumin (FIG. 12C, A+arrows) (500 μg/ml). […] Accordingly, aromatic-cationic peptides of the present disclosure are useful for the prevention or treatment of diseases or disorders characterized by dysregulation of cytochrome c.
Fluorescence emission of SS-19 (10 μM) was monitored in real time (Ex/Em=320 nm/420 nm) using Hitachi F-4500 fluorescence spectrophotometer.
as §1

[3] = Fluorescence spectroscopy of labelled peptides with cardiolipin; format: binding
Description: The peptides 2′,6′-Dmt-D-Arg-[…] (SS-19) and 2′,6′-Dmt-D-Arg-Phe-Lys-Ald-NH2 (SS-37) cationic peptides carry net positive charge at neutral pH. They are expected to associate with anionic phospholipid cardiolipin based on electrostatic interaction. The interaction of small peptides with lipid membranes can been studied using fluorescence spectroscopy (Surewicz and Epand, 1984). […] Polarity-sensitive fluorescent probes were incorporated into the peptides and fluorescence spectroscopy was used to determine if SS-19, SS-37 and SS-36 interact with CL.
The peptide 2′,6′-Dmt-D-Arg-Phe-(atn)Dap-NH2 (SS-19) contains anthraniloyl incorporated into diaminopropionic acid. Anthraniloyl derivatives fluoresce in the 410-420 nm range when excited at 320-330 nm (Hiratsuka T, 1983). The quantum yield of anthraniloyl derivatives is strongly dependent on the local environment, and can increase 5-fold going from water to 80% ethanol, together with a blue shift in the emission maxima (λ max) of <10 nm (Hiratsuka T, 1983). Fluorescence emission spectrum of SS-19 (1 μM) alone, and in the presence of increasing concentrations of CL (5 to 50 μg/ml), was monitored following excitation at 320 nm using Hitachi F-4500 fluorescence spectrophotometer.
The peptide 2′,6′-Dmt-D-Arg-Phe-Lys-Ald-NH2 (SS-37) contains an additional amino acid, aladan (Ald), which has been reported to be particularly sensitive to the polarity of its environment and it has been used to probe the electrostatic character of proteins (Cohen et al., 2002). When excited at 350 nm, λmax shifts from 542 nm in water to 409 nm in heptane, accompanied by a significant increase in quantal yield (Cohen et al., 2001). Fluorescence emission spectrum of SS-37 (1 μM) alone, and in the presence of increasing concentrations of CL, was monitored following excitation at 350 nm. Addition of CL (5 to 50 μg/ml) led to a 3-fold increase in quantal yield of SS-37 as well as a clear blue shift in λ max, from 525 nm without CL to 500 nm with 50 μg/ml CL (FIG. 11B).
The peptide 2′,6′-Dmt-D-Arg-Ald-Lys-NH2 (SS-36) contains Ald in place Phe^3 in SS-02. Fluorescence emission spectrum of SS-36 (1 μM) alone, and in the presence of increasing concentrations of CL, was monitored following excitation at 350 nm. SS-36 was the most sensitive to the addition of CL, with dramatic increase in quantal yield and blue shift observed with much lower added amounts of CL (1.25 to 5 μg/ml). The λmax shifted from 525 nm without CL to 500 nm with as little as 1.25 μg/ml CL, and quantal yield increased by more than 100-fold with the addition of 5 μg/ml of CL (FIG. 11C). […] Accordingly, aromatic-cationic peptides of the present disclosure are useful for the prevention or treatment of diseases or disorders characterized by dysregulation of cardiolipin.
Changes in the emission intensity of the [atn]SS-02 and the [ald]SS-02 were measured using a Hitachi F-4500 fluorescence spectrophotometer. The different solvents used to dissolve the various phospholipids (chloroform, methanol and ethanol) had negligible effect on the fluorescence spectrum of [atn]SS-02 and [ald]SS-02. All experiments were done in low ionic solution (deionized water) to optimize electrostatic interactions of peptides with phospholipids.
Increasing concentrations of cardiolipin (5, 10, 25, and 50 μg/mL) were added to 1 μM [atn]SS-02, and the emission intensity between 350 nm and 500 nm was measured.

cytochrome c [4] = molecular target: T2, cytochrome c; assay: Cyclic voltammetry of cytochrome c; format: biochemical

T1 sequence (P00004 2-105 limits assumed): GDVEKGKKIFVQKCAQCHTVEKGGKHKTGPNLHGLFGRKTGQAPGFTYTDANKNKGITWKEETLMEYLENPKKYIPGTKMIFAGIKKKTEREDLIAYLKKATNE
T2 sequence (P00004 2-105 limits assumed): as above

2′,6′-Dmt-D-Arg-Phe-(atn)Dap-NH2 [SS-19]
quenching of the fluorescent signal ([1]; 2 μM cytochrome c, 1 μM peptide, 10 μg/mL cardiolipin, 420 nm): ~50% | extent of quenching by cytochrome c with CL compared to without CL ([1]; 10 μM peptide, CL 50 μg/ml, cytochrome c 2 μM): larger extent of quenching | effect of cardiolipin on interaction between cytochrome c and peptide ([1]; free cardiolipin or cardiolipin liposomes): potentiated by either free cardiolipin or cardiolipin liposomes in a dose-dependent manner | dependence of interaction on amount of cytochrome c (cytochrome c [2]): linearly dependent on the amount of cytochrome c added | quenching of the fluorescent signal (cytochrome c [2]; 2 μM cytochrome c, 1 μM peptide, absence of cardiolipin, 420 nm): ~20% | quenching of peptide fluorescence by cytochrome c (cytochrome c [2]; 10 μM peptide, 2 μM cytochrome c, Ex/Em 320/420 nm): similarly quenched by sequential addition of 2 μM cytochrome c; also recorded: immediate quenching of the fluorescence signal | displacement of cytochrome c quenching by bovine serum albumin (cytochrome c [2]; BSA 500 μg/ml): not displaced | change in λmax on quenching by cytochrome c (cytochrome c [2]): no change in λmax | quenching of fluorescence by cytochrome c (cytochrome c [2]): concentration-dependent quenching | shift in λmax on addition of CL ([3]; 1 μM peptide, CL 5-50 μg/ml, excitation 320 nm): no significant shift in λmax | increase in quantal yield on addition of CL ([3]; 1 μM peptide, CL 5 to 50 μg/ml): 2 fold | emission intensity on addition of cardiolipin ([3]; 1 μM peptide, deionized water (Example 21)): increased the emission intensity of [atn]SS-02 in a concentration-dependent manner | peptide fluorescence on addition of CL ([3]; 10 μM peptide, CL 50 μg/ml, Ex/Em 320/420 nm): increase in SS-19 fluorescence

2′,6′-Dmt-D-Arg-Ald-Lys-NH2 [SS-36]
emission maximum with cardiolipin after addition of cytochrome c [1]: 450 nm | emission maximum with cardiolipin before addition of cytochrome c [1]: 510 nm | quenching of fluorescence by cytochrome c in the presence of CL ([1]; CL 2.5 μg/ml, cytochrome c 2 μM): dramatic quenching | change in λmax on quenching by cytochrome c (cytochrome c [2]): no change in λmax | quenching of fluorescence by cytochrome c (cytochrome c [2]): concentration-dependent quenching | increase in quantal yield on addition of CL ([3]; 1 μM peptide, 5 μg/ml CL, excitation 350 nm): more than 100 fold | affinity compared among POPS, POPA, DPPG and cardiolipin ([3]; 1 μM peptide, 10 μg/mL phospholipid): Cardiolipin shows the highest affinity | peptide fluorescence on addition of CL ([3]; CL 2.5 μg/ml): increase in SS-36 fluorescence

D-Arg-2′,6′-Dmt-Lys-Phe-NH2 [SS-31]
reduction/oxidation potentials of cytochrome c (cytochrome c [4]): does not alter reduction/oxidation potentials | current of cytochrome c reduction and oxidation processes (cytochrome c [4]; Au working electrode, Ag/AgCl reference): increased current for both reduction and oxidation processes of cytochrome c | increase of current (electron diffusion rate) (cytochrome c [4]; cytochrome c:SS-31=1:2, TBE buffer): ~200%
